This passage reports IC50 and Activity results from ChEMBL document CHEMBL2074371, “The dietary polyphenol ellagic acid is a potent inhibitor of hOAT1” (Drug Metab Dispos, 2005).

Each structure is given as a SMILES string.

The target of data set [1] is T1, Solute carrier family 22 member 6 (Homo sapiens, UniProt Q4U2R8).
T1 sequence (Q4U2R8 whole entry): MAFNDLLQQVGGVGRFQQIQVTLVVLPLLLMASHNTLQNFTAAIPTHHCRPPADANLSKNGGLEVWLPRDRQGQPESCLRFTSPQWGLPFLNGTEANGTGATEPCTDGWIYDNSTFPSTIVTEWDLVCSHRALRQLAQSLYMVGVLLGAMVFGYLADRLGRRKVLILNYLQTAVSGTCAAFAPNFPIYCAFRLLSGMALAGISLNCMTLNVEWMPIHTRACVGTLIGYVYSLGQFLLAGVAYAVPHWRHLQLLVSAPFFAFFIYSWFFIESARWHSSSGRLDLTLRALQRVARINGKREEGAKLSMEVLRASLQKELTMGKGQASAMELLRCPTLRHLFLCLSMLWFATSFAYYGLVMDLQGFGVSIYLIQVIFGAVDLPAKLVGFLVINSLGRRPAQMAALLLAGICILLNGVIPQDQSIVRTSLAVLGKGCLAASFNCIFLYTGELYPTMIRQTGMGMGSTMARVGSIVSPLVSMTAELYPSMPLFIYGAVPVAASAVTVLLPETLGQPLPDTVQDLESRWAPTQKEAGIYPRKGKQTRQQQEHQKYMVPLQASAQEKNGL
The experiment in a line: TP_TRANSPORTER: inhibition of ochratoxin A uptake (ochratoxin A / 1uM) in Xenopus laevis oocytes. In kind it is functional, cell-based, Oocyte.

Data set [2] concerns the target T1, Solute carrier family 22 member 6. Briefly: (§1) TP_TRANSPORTER: uptake in Xenopus laevis oocytes. In kind it is functional, cell-based. As to conditions: oocyte.
Data set [3] concerns the target T2, Solute carrier family 22 member 11 (Homo sapiens, UniProt Q9NSA0).
T2 sequence (Q9NSA0 whole entry): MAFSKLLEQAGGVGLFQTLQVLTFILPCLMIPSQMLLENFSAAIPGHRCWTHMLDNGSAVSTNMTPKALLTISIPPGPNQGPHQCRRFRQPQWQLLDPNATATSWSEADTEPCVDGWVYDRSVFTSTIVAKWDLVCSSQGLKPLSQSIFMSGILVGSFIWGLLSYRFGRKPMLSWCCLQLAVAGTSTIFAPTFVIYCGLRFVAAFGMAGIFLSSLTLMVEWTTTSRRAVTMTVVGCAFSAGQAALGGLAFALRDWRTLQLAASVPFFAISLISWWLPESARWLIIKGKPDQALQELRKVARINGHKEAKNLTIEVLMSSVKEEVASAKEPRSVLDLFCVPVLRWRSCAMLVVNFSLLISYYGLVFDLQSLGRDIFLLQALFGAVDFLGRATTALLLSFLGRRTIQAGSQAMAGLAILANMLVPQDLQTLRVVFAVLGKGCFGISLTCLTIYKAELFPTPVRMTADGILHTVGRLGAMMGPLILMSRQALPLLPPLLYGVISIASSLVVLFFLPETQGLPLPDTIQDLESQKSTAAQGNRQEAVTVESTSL
The data set is described as §1. In kind it is functional, cell-based. As to conditions: oocyte.

In data set [4] the target is T2, Solute carrier family 22 member 11. Briefly: TP_TRANSPORTER: inhibition of p-aminohippurate uptake (p-aminohippurate / 10uM) by ellagic acid at a concentration of 35uM in Xenopus laevis oocytes. In kind it is functional, cell-based. Set-up: scale not given: the % may be the effect or the level left. Particulars: oocyte.

Turning to `O=c1oc2c(O)c(O)cc3c(=O)oc4c(O)c(O)cc1c4c23` [ELLAGIC ACID], the IC50 in data set [1] was determined as 270 nM. Moreover, the Activity entry in data set [2] was “substrate [+]”; in data set [3] it was “substrate [+]”; in data set [4], 35%.

As usually defined, the IC50 is the concentration that gives 50% inhibition.
